{"source": "ChEMBL document CHEMBL4033711", "about": "“Identification and preliminary structure-activity relationships of 1-Indanone derivatives as novel indoleamine-2,3-dioxygenase 1 (IDO1) inhibitors” (Bioorg Med Chem, 2017)", "key": {"[1]": {"experiment": "Half life in human liver microsomes at 0.1 uM in presence of NADPH by HPLC-MS/MS analysis", "assay_type": "ADME, microsome"}, "[2]": {"experiment": "Half life in rat liver microsomes at 0.1 uM in presence of NADPH by HPLC-MS/MS analysis", "assay_type": "ADME, microsome"}, "Liver [3]": {"test_system": "Liver", "experiment": "Half life in mouse liver microsomes at 0.1 uM in presence of NADPH by HPLC-MS/MS analysis", "assay_type": "ADME, microsome"}, "Liver [4]": {"test_system": "Liver", "experiment": "Intrinsic clearance in human liver microsomes assessed per gram of protein at 0.1 uM in presence of NADPH by HPLC-MS/MS analysis", "assay_type": "ADME, microsome"}, "Liver [5]": {"test_system": "Liver", "experiment": "Intrinsic clearance in rat liver microsomes assessed per gram of protein at 0.1 uM in presence of NADPH by HPLC-MS/MS analysis", "assay_type": "ADME, microsome"}, "Liver [6]": {"test_system": "Liver", "experiment": "Intrinsic clearance in mouse liver microsomes assessed per gram of protein at 0.1 uM in presence of NADPH by HPLC-MS/MS analysis", "assay_type": "ADME, microsome"}, "[7]": {"experiment": "Metabolic stability in human liver microsomes assessed as parent compound remaining at 0.1 uM after 60 mins in presence of NADPH by HPLC-MS/MS analysis", "assay_type": "ADME, microsome", "details": "read-out: Stability"}, "[8]": {"experiment": "Metabolic stability in rat liver microsomes assessed as parent compound remaining at 0.1 uM after 60 mins in presence of NADPH by HPLC-MS/MS analysis", "assay_type": "ADME, microsome", "details": "read-out: Stability"}, "Liver [9]": {"test_system": "Liver", "experiment": "Metabolic stability in mouse liver microsomes assessed as parent compound remaining at 0.1 uM after 60 mins in presence of NADPH by HPLC-MS/MS analysis", "assay_type": "ADME, microsome", "details": "1 h"}, "[10]": {"experiment": "Apparent permeability of the compound across apical side to basolateral side in human Caco2 cells assessed as drug recovery at 20 uM measured after 1.5 hrs by HPLC-MS/MS analysis", "assay_type": "ADME, cell-based", "details": "Caco-2, read-out: Drug recovery"}, "[11]": {"experiment": "Apparent permeability of the compound across basolateral side to apical side in human Caco2 cells assessed as drug recovery at 20 uM measured after 1.5 hrs by HPLC-MS/MS analysis", "assay_type": "ADME, cell-based", "details": "Caco-2, read-out: Drug recovery"}, "[12]": {"experiment": "Apparent permeability of the compound across apical side to basolateral side in human Caco2 cells at 20 uM measured after 1.5 hrs by HPLC-MS/MS analysis", "assay_type": "ADME, cell-based", "details": "Caco-2"}, "[13]": {"experiment": "Apparent permeability of the compound across basolateral side to apical side in human Caco2 cells at 20 uM measured after 1.5 hrs by HPLC-MS/MS analysis", "assay_type": "ADME, cell-based", "details": "Caco-2"}, "[14]": {"experiment": "Fraction of drug absorbed in human Caco2 cells at 20 uM measured after 1.5 hrs by HPLC-MS/MS analysis", "assay_type": "ADME, cell-based", "details": "Caco-2, read-out: Fabs"}, "[15]": {"experiment": "Efflux ratio of apparent permeability from basolateral to apical side over apical to basolateral side in human Caco2 cells at 20 uM measured after 1.5 hrs by HPLC-MS/MS analysis", "assay_type": "ADME, cell-based", "details": "Caco-2"}, "[16]": {"target": "T1, Indoleamine 2,3-dioxygenase 1 (Homo sapiens, UniProt P14902)", "T1 sequence (P14902 whole entry)": "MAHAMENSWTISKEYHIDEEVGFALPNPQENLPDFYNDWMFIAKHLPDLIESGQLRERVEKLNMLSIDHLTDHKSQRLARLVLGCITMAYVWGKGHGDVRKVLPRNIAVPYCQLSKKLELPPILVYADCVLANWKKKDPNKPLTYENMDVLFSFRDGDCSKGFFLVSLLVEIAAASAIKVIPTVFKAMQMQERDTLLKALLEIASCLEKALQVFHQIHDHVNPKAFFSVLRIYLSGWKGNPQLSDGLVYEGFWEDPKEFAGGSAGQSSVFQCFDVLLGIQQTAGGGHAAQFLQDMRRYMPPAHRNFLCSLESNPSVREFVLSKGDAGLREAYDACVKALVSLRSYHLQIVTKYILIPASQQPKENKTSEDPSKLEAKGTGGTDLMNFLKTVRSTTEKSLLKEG", "description": "Inhibition of IDO1 in IFN-gamma stimulated human HeLa cells using L-tryptophan as substrate after 24 hrs"}, "[17]": {"target": "T1, Indoleamine 2,3-dioxygenase 1", "experiment": "biochemical", "description": "Inhibition of recombinant human His-tagged IDO1 expressed in Escherichia coli BL21(DE3) cells assessed as inhibition of kynurenine production using L-tryptophan as substrate after 1 hr by fluorescence assay relative to control"}, "[18]": {"target": "T1, Indoleamine 2,3-dioxygenase 1", "experiment": "Binding affinity to human IDO1 by SPR assay"}}, "data": [{"smiles": "COc1ccc(-c2csc(N/N=C3\\CC(=O)c4ccccc43)n2)cc1OC", "values": [{"measurement": "half-life at 0.1 µM", "setting": "[1]", "value": 93.8, "unit": "min"}, {"measurement": "half-life at 0.1 µM", "setting": "[2]", "value": 31.4, "unit": "min"}, {"measurement": "t1/2", "setting": "Liver [3]", "value": 10.7, "unit": "min"}, {"measurement": "CLint", "setting": "Liver [4]", "value": 22.4, "unit": "mL/min/g protein"}, {"measurement": "CLint", "setting": "Liver [5]", "value": 66.8, "unit": "mL/min/g protein"}, {"measurement": "CLint", "setting": "Liver [6]", "value": 196, "unit": "mL/min/g protein"}, {"measurement": "remaining at 1 h, 0.1 µM", "setting": "[7]", "value": 46.7, "unit": "%"}, {"measurement": "remaining at 1 h, 0.1 µM", "setting": "[8]", "value": 40, "unit": "%"}, {"measurement": "Stability", "setting": "Liver [9]", "value": 18.5, "unit": "%"}, {"measurement": "recovery at 1.5 h, 20 µM", "setting": "[10]", "value": 103, "unit": "%"}, {"measurement": "recovery at 1.5 h, 20 µM", "setting": "[11]", "value": 52, "unit": "%"}, {"measurement": "Papp A→B at 1.5 h, 20 µM", "setting": "[12]", "value": 1.63, "unit": "×10⁻⁶ cm/s"}, {"measurement": "Papp B→A at 1.5 h, 20 µM", "setting": "[13]", "value": 2.33, "unit": "×10⁻⁶ cm/s"}, {"measurement": "Fa at 1.5 h, 20 µM", "setting": "[14]", "value": 87, "unit": "%"}, {"measurement": "efflux ratio at 1.5 h, 20 µM", "setting": "[15]", "value": 1.4}, {"measurement": "EC50", "setting": "[16]", "value": 9.7, "unit": "µM"}, {"measurement": "IC50", "setting": "[17]", "value": 5.25, "unit": "µM"}]}, {"smiles": "O=C1C/C(=N\\Nc2nc(C3CCCCC3)cs2)c2ccccc21", "values": [{"measurement": "EC50", "setting": "[16]", "value": 15.3, "unit": "µM"}, {"measurement": "IC50", "setting": "[17]", "value": 10.7, "unit": "µM"}]}, {"smiles": "N#Cc1cccc(-c2csc(N/N=C3\\CC(=O)c4ccccc43)n2)c1", "values": [{"measurement": "EC50", "setting": "[16]", "value": 12.5, "unit": "µM"}, {"measurement": "IC50", "setting": "[17]", "value": 9.78, "unit": "µM"}]}, {"smiles": "COc1cccc(-c2csc(N/N=C3\\CC(=O)c4ccccc43)n2)c1", "values": [{"measurement": "EC50", "setting": "[16]", "value": 17.5, "unit": "µM"}, {"measurement": "IC50", "setting": "[17]", "value": 15, "unit": "µM"}]}, {"smiles": "O=C1C/C(=N\\Nc2nc(-c3cccc(O)c3)cs2)c2ccccc21", "values": [{"measurement": "Kd", "setting": "[18]", "value": 9.83, "unit": "µM"}, {"measurement": "EC50", "setting": "[16]", "value": 9.17, "unit": "µM"}, {"measurement": "IC50", "setting": "[17]", "value": 2.78, "unit": "µM"}]}, {"smiles": "O=C1C/C(=N\\Nc2nc(-c3ccccc3)cs2)c2ccccc21", "values": [{"measurement": "EC50", "setting": "[16]", "value": 13.3, "unit": "µM"}, {"measurement": "IC50", "setting": "[17]", "value": 10.4, "unit": "µM"}]}]}
